Test [1] deals with T1, EP2-Subtyp des humanen PGE2-Rezeptors (Homo sapiens, UniProt P43116).
T1 construct: host or cells: cells in a culture plate
The experiment in a line: cAMP antagonism test (cellular, HTRF cAMP detection, PGE2 stimulation). It counts as cell-based. As to conditions: cAMP Antagonismustest; in presence of agonist PGE2; read-out: Antagonismus [IC50. An excerpt: Die Bindung von PGE2 an den EP2-Subtyp des humanen PGE2-Rezeptors induziert die Aktivierung membranständiger Adenylatzyklasen und führt zur Bildung von cAMP. In Gegenwart des Phosphodiesteraseinhibitors IBMX wird das durch diese Stimulation akkumulierte und mittels Zell-Lyse freigesetzte cAMP in einem kompetitiven Nachweisverfahren eingesetzt. In diesem Test konkurriert das cAMP im Lysat mit cAMP-XL665 um die Bindung eines Eu-Kryptat markierten Anti-cAMP Antikörpers. Dabei entsteht in Abwesenheit von zellulärem cAMP ein maximales Signal, welches auf der Kopplung dieses Antikörpers an das cAMP-XL665 Molekül beruht. Dadurch entsteht nach Anregung bei 337 nm ein auf FRET (fluorescence resonance energy transfer) basierendes, langanhaltendes Emissionssignal bei 665 nm (und bei […]). Beide Signale werden in einem geeigneten Messgerät zeitlich versetzt, d.h. nach Abklingen der Hintergrundsfluoreszenz gemessen. Jegliche Erhöhung des durch Prostglandin-E2-Gabe bedingten niedrigen FRET-Signals (gemessen als Well-Ratio-Veränderung = Emission665nm/Emission620nm * 10000) zeigt die Wirkung von Antagonisten.
Die in einer Testplatte und 30 % DMSO vorgelegten Substanzlösungen (0.75 µl) werden in 16 µl einer KRSB+IBMX-Stimulationslösung gelöst (1 X Krebs-Ringer Bicarbonate Buffer; Sigma-Aldrich # K-4002; inklusive 750 µM 3-Isobutyl-1-methylxanthine Sigma-Aldrich # I-7018), anschließend werden 15 µl davon in eine medienfreie Zellkulturplatte überführt, die kurz zuvor mit KRSB gewaschen worden war.
Nach einer 30-minütigen Vorinkubation bei Raumtemperatur (RT) werden 5 µl einer 4xPGE2 Lösung (11 nM) zugegeben und in Gegenwart des Agonisten für weitere 60 min bei RT inkubiert (Volumen: - 20 µl), bevor die Reaktion anschließend durch Zugabe von 5 µl Lysispuffer gestoppt und für weitere 20 min bei RT inkubiert wird (Volumen: - 25 µl). Das Zell-Lysat wird anschließend in eine Messplatte überführt und entsprechend den Herstellerangaben (cyclic AMP kit Cisbio International # 62AMPPEC) gemessen.
In general terms: TR-FRET usually uses a lanthanide donor and a delayed reading to cut background.

The target of test [2] is T1, EP2-Subtyp des humanen PGE2-Rezeptors. The experiment in a line: cAMP agonism test (cellular, HTRF cAMP detection, without PGE2). It is filed as cell-based.
Test [3] has as its system Kumulus-Eizell Komplexe. The experiment in a line: Cumulus expansion test in vitro. It counts as cell-based, Mäuse. The note with it: competition with PGE2. An excerpt:
In immaturen weiblichen Mäusen (Stamm : CD1 (ICR) von Charles River) wird in einem Alter von 14-18 Tagen die Follikulogenese durch eine einmalige Gabe (intraperitoneal) von 10 1.E. PMSG (Pregnant Mare Serum Gonadotropine; Sigma G-4877, Lot 68H0909) induziert. 47 - 50 Stunden nach der Injektion werden die Ovarien entnommen und die Kumulus-Eizell Komplexe entnommen. Der Kumulus Komplex ist in diesem Stadium noch nicht expandiert. Die Kumulus-Eizell Komplexe werden nun für 20 - 24 Stunden mit Prostaglandin E2 (PGE2) (0,3 µM), Vehikel Kontrolle (Ethanol) oder Testsubstanzen inkubiert. Medium: alpha- MEM Medium mit 0,1 mM IBMX, Pyruvate (0,23 mM) Glutamine (2 mM), Pen/Strep 100 IU/ml Pen. und 100 µg/ml Strep.) und HSA (8 mg/ml)). Danach wird die Kumulus Expansion durch die Einteilung in vier Stadien (nach Vanderhyden et al. Dev Biol. 1990 Aug;140(2):307-317) festgestellt. Tabelle 1: Beispiel für die biologische Wirksamkeit der erfindungsgemäßen Verbindungen (gemessen mittels cAMP Antagonismustest): […]

T1 sequence (P43116 whole entry): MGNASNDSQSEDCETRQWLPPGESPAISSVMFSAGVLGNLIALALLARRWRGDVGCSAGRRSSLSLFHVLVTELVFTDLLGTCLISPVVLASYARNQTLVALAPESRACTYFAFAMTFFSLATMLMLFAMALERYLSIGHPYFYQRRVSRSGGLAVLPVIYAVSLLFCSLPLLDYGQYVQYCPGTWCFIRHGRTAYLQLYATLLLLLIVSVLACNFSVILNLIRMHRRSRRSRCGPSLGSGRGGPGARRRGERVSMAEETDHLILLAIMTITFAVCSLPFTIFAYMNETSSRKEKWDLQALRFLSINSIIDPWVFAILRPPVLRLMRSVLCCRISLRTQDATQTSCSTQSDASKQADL

One may read the IC50 as the midpoint of a concentration-inhibition curve. As for `Cc1[nH]c2c(F)ccc(C)c2c1CCNC(=O)c1cccc(-c2cc[nH]n2)c1` [Beispiel 15, N-[2-(7-Fluor-2,4-dimethyl-1H-indol-3-yl)-ethyl]-3-(1 H-pyrazol-3-yl)-benzamid], the half-maximal inhibitory concentration (IC50) in test [1] came out at 1 µM. The “Inhibition im zellulären Agonismustest” value in test [2] is recorded as “keine Inhibition”.

In the case of `CC(C)Oc1ccc2c(=O)c3cc(C(=O)O)ccc3oc2c1` [AH 6809, reference compound], the “Unterdrückung der Kumulus Expansion” value in test [3] (concentration 100 - 200 µM) is reported as “ca. 30%”.

Regarding `Cc1[nH]c2c(F)ccc(C)c2c1CCNC(=O)c1ccc(-c2csnn2)cc1` [Beispiel 21, N-[2-(7-Fluor-2,4-dimethyl-1H-indol-3-yl)-ethyl]-4-[1,2,3]thiadiazol-4-yl-benzamid], the “Unterdrückung der Kumulus Expansion” value in test [3] (concentration 10µM) was 50%.

Turning to `Cc1[nH]c2c(F)ccc(C)c2c1CCNC(=O)c1ccc(-n2cccc2)cc1` [Beispiel 13, N-[2-(7-Fluor-2,4-dimethyl-1H-indol-3-yl)-ethyl]-4-pyrrol-1-yl-benzamid], the IC50 in test [1] turned out to be 0.96 µM.

On to `Cc1[nH]c2c(F)ccc(C)c2c1CCNC(=O)c1cccc(-c2cccnc2)c1` [Beispiel 20, N-[2-(7-Fluor-2,4-dimethyl-1H-indol-3-yl)-ethyl]-3-pyridin-3-yl-benzamid], for which the IC50 in test [1] was 1.9 µM.

The record behind these values is EP2002838A1, “Use of aryl and hetaryl amide derivatives as modulators of an EP2 receptor” (Bayer Schering Pharma AG, priority 2007, dated 2008).
